Measured values as given in patent publication US20160120825A1 (TIANJIN TAIPU PHARMACEUTICAL SCIENCE & TECHNOLOGY …, priority 2013, published 2016).
Where two headings read alike, the source gives them in different places.

Experiments:
[1] = system: brain nerve cells (hippocampal ventral dentate gyrus); conditions: adult rat, cited from earlier work
[2] = change of crystalline X-form raw material in pulverization, grinding, tabletting detected by DSC; type: physicochemical
From the text: Change of the crystalline X-form raw material in pulverization, grinding, and tabletting (at a pressure of 10 kg) was detected by DSC (see FIGS. 1-4).

[3] = solubility of crystalline X-form agomelatine in solvents; type: physicochemical
[4] = stability in the process (DSC crystal form purity, HPLC relevant substances); type: physicochemical; conditions: during formulation process
From the text: (§1) Referring to the aforementioned test 6, tablets were manufactured according to formulation and process with hydroxyproplyl methyl cellulose and polyvinylpyrrolindone k30 in a concentration of 15% as a protective agent.
Crystal form purity of the tablets was detected using DSC method with crystal forms and relevant substances as evaluation indexes. Regarding detection of relevant substances, HPLC method was adopted using imported drug as a standard.

[5] = test on influencing factors; type: physicochemical
Protocol: as §1
We investigated in combination with formulations of the present invention: the samples were allowed to stand in an open state for 30 days under the conditions of a high temperature of 60° C., a high humidity of RH 92%, and both high temperature and high humidity (40° C., RH75%), respectively. The results are as follows: Test results on influencing factors (%)

COc1ccc2cccc(CCNC(C)=O)c2c1 [Agomelatine, agomelatine]
cell proliferation and neuronal regeneration in hippocampal ventral dentate gyrus ([1]; acute or subacute administration (4 hours or nine weeks)): no similar situation occurred
cell proliferation and neuronal regeneration in hippocampal ventral dentate gyrus ([1]; long-term (three weeks) administration): could increase cell proliferation and neuronal regeneration

COc1ccc2cccc(CCNC(C)=O)c2c1 [agomelatine]
X-form crystal purity (%) detected by DSC ([2]; after grinding): 75.1%
X-form crystal purity (%) detected by DSC ([2]; after pulverization): 79.4%
X-form crystal purity (%) detected by DSC ([2]; after tabletting (pressure of 10 kg)): 57.7%
X-form crystal purity (%) detected by DSC ([2]; untreated crystalline X-form): 100%
solubility ([3]; in methanol, ethanol, acetonitrile, DMSO, etc.): very soluble
solubility ([3]; in water): almost insoluble
Crystal form purity ([4]; DSC): 100
Relevant substances ([4]; HPLC): 0.42%
Crystal form purity % ([5]; 0 day): 100%
Crystal form purity % ([5]; 10 days at a high humidity (RH 92%), open state): 85%
Crystal form purity % ([5]; 10 days at a high temperature (60° C.), open state): 68%
Crystal form purity % ([5]; 10 days at both high temperature and high humidity (40° C., RH75%), open state): 57%
